Laboratory results reported in patent publication US12458637B2, “Targeting WNK1 in blood cancers” (Københavns Universitet, priority 2019, dated 2025).
Entries after “also recorded” stand apart in the source; their conditions may differ.

Tests used:
[1] = tested on: blood pressure; settings: 30 mg/kg single oral dose, rodent hypertension models; cited from earlier work
[2] = tested on: WNK1 (P-OXSR1); experiment: Western blot of Oxsr1 and P-Oxsr1 in MA9 cells; type: cell-based, mouse; settings: MA9 cells treated for 3 hours
Procedure: Murine MLL-AF9 transformed leukemic cells (MA9) were treated for 3 hours with different concentrations of “Compound 12”. Treated cells were counted and lysed in 1×LSB buffer and an equal to 100.000 cells were loaded on each lane of a 10% SDS-Page gel.
Gels were transferred to nitrocellulose membranes probed with sheep-anti-OXSR1 [S336B] or sheep-anti-P-OXSR1 [S688B] (both from University of Dundee). Binding of the primary antibody was on detected light sensitive films, using rabbit peroxidase conjugated anti-sheep IgG antibody (1 in 30.000 dilution, Abcam: ab6900) followed by enhanced chemiluminescence (Pierce ECL Plus, ThermoFisher: 34577) (FIG. 4B).

[3] = tested on: blood cancer cell lines; experiment: CellTiter-Glo viability assay, human cell lines; type: cell-based; settings: FIG. 5
Procedure: Dose-response curves were generated using the CellTiter-Glo® assay (Promega: G7570). BJ-tert, U2OS, MOLM13, THP1, Monomac, MMS1, KMS18, KMS11, MSTo, and H226, cells were seeded in triplicate in round bottom 96 well plates in the presence of varying concentrations of “Compound 12”. After 72 hours the number of viable cells in the cultures were measured using the CellTiter-Glo®. IC50 values were calculated using the Prism software (GraphPad: Prism 7 for Mac OS X). The experiment show the IC50 values for the different human cell lines (FIG. 5).

[4] = tested on: MEFs; experiment: CellTiter-Glo viability assay, mouse embryonic fibroblasts; type: cell-based
Procedure: (§1) Dose-response curves were generated using the CellTiter-Glo® assay (Promega: G7570). Cells were seeded in triplicate in round bottom 96 well plates in the presence of varying concentrations of “Compound 12”. After 72 hours the number of viable cells in the cultures were measured using the CellTiter-Glo®. IC50 values were calculated using the Prism software (GraphPad: Prism 7 for Mac OS X).

[5] = tested on: MA9 cells; experiment: CellTiter-Glo viability assay, MA9 cells; type: cell-based; settings: Mus musculus, 72 hours
Procedure: as §1

[6] = tested on: MA9 cells; experiment: Growth curves of MA9 cells; type: cell-based, mouse; settings: varying concentrations, growth curve, FIG. 4C
Procedure: MA9 cell cultures were grown in triplicate in 24 well plates in the presence of varying concentrations of “Compound 12”. Cells were plated with a density of 50.000 cells per well after which they were counted and replated every 3 days.

[7] = Yamada et al., 2017; cited from earlier work
[8] = 30 mg/kg single oral dose; cited from earlier work
[9] = tested on: phosphorylated OXSR1; settings: in cells, Yamada et al., 2017; cited from earlier work
[10] = tested on: MLL-AF9 translocated leukemia; experiment: In vivo treatment of leukemic mice (MA9 transplanted); parameters: species or system mouse; settings: daily injection of 1.8 mg in sun flower oil, mice transplanted with MA9 cells
Procedure: 1×10^4 leukemic cells were injected into the tail vein of sub-lethally irradiated (450 rad) BL6.SJL mice. Two days after transplantation the mice were injected with 1.8 mg “Compound 12” dissolved into 200 μL sun flower oil or sun flower oil alone (control). A total of 26 mice were used in the experiment, where 14 received oil alone and 12 received “Compound 12”.
The injections were continued daily for a period of 20 days.

**Q.** Which Blood pressure [1] does the source give for `[2H]C([2H])([2H])Nc1nc(-c2cc(C(=O)N3CCN(Cc4ccc(Cl)cc4)CC3)c(Cl)cn2)cs1` [Compound 12, (5-Chloro-2-(2-((methyl-d3)amino)thiazol-4-yl)-pyridin-4-yl)(4-(4-chlorobenzyl)piperazin-1-yl)methanone] here?
**A.** some reduction in blood pressure

**Q.** What about the “Inhibition of WNK1 (phosphorylated OXSR1, Western blot)” value [2] of the same compound?
**A.** inhibits WNK1 in leukemic cells

**Q.** And the “Sensitivity of blood cancer cell lines compared with diploid fibroblasts” value ([3]; human cell lines vs BJ tert)?
**A.** significantly more sensitive

**Q.** What about the IC50 ([3]; viability, 72 hours, human cell lines, read-out: IC50 of most of the blood cancer cell lines) of the same compound?
**A.** ~1 µM

**Q.** What about the IC50 ([4]; Mus musculus, Fibroblast, viability, 72 hours, CellTiter-Glo) of the same compound?
**A.** > 20 µM

**Q.** And the “IC50 in MEFs compared with MA9 cells” value ([4]; viability assay, FIG. 4A)?
**A.** significantly higher

**Q.** What about the IC50 [5] of the same compound?
**A.** ~1 µM

**Q.** What about the “Growth / proliferation of MA9 cells” value [6] of the same compound?
**A.** dose-dependent inhibition; also recorded: inhibits growth; also recorded: attenuated growth

**Q.** And the Toxicity in mice [7]?
**A.** low toxicity

**Q.** And the Concentration [8]?
**A.** 2000 nM

**Q.** What about the EC50 [9] of the same compound?
**A.** 0.59 µM

**Q.** What about the “Lifespan of leukemic mice” value [10] of the same compound?
**A.** significantly extend the life-time; also recorded: increases their lifespan; also recorded: increased lifespan
